Measured values: PubChem BioAssay (NCI)
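Briefly, cells in 96-well plates were exposed to five compound concentrations for 48 h, and endpoints were estimated by linear interpolation. GI50 = concentration required for 50% inhibition of growth. TGI: total growth inhibition.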

Columns and labels:
Experiment in all cases: NCI-60 cell line screen, 48 h
MOLT-4 leukemia = test system: MOLT-4 leukemia
MDA-MB-435 = test system: MDA-MB-435
MDA-MB-468 breast = test system: MDA-MB-468 breast
TK-10 renal = test system: TK-10 renal
M14 melanoma = test system: M14 melanoma
NCI-H226 lung = test system: NCI-H226 lung
MDA-MB-231 breast = test system: MDA-MB-231 breast
OVCAR-3 ovarian = test system: OVCAR-3 ovarian
A498 renal = test system: A498 renal
COLO 205 colon = test system: COLO 205 colon
HOP-92 NSCLC = test system: HOP-92 NSCLC
CAKI-1 renal = test system: CAKI-1 renal
HCC-2998 colon = test system: HCC-2998 colon
NCI-H522 lung = test system: NCI-H522 lung
SK-OV-3 ovarian = test system: SK-OV-3 ovarian
UACC-62 melanoma = test system: UACC-62 melanoma
SNB-19 CNS = test system: SNB-19 CNS
HCT-15 colon = test system: HCT-15 colon
SK-MEL-28 melanoma = test system: SK-MEL-28 melanoma
MALME-3M melanoma = test system: MALME-3M melanoma
SN12C renal = test system: SN12C renal
OVCAR-4 ovarian = test system: OVCAR-4 ovarian
HL-60(TB) leukemia = test system: HL-60(TB) leukemia
SK-MEL-2 melanoma = test system: SK-MEL-2 melanoma
DU-145 prostate = test system: DU-145 prostate
ACHN renal = test system: ACHN renal
CCRF-CEM leukemia = test system: CCRF-CEM leukemia
PC-3 prostate = test system: PC-3 prostate
OVCAR-5 ovarian = test system: OVCAR-5 ovarian
SK-MEL-5 melanoma = test system: SK-MEL-5 melanoma
IGROV1 ovarian = test system: IGROV1 ovarian
SR leukemia = test system: SR leukemia
UO-31 renal = test system: UO-31 renal
BT-549 breast = test system: BT-549 breast
RPMI-8226 leukemia = test system: RPMI-8226 leukemia
NCI-H23 lung = test system: NCI-H23 lung
EKVX NSCLC = test system: EKVX NSCLC
UACC-257 melanoma = test system: UACC-257 melanoma
KM12 colon = test system: KM12 colon
K-562 leukemia = test system: K-562 leukemia
SF-539 CNS = test system: SF-539 CNS
SNB-75 CNS = test system: SNB-75 CNS
786-0 renal = test system: 786-0 renal
OVCAR-8 ovarian = test system: OVCAR-8 ovarian
U251 CNS = test system: U251 CNS
A549 NSCLC = test system: A549 NSCLC
LOX IMVI melanoma = test system: LOX IMVI melanoma
HS 578T breast = test system: HS 578T breast
HT29 colon = test system: HT29 colon
SW-620 colon = test system: SW-620 colon
SF-295 CNS = test system: SF-295 CNS
RXF 393 renal = test system: RXF 393 renal
HCT-116 colon = test system: HCT-116 colon
HOP-62 NSCLC = test system: HOP-62 NSCLC
SF-268 CNS = test system: SF-268 CNS
NCI/ADR-RES ovarian = test system: NCI/ADR-RES ovarian

Compound: N[C@@H](CSSC[C@H](N)C(=O)Nc1ccc(OCC2CCCC2)cc1)C(=O)Nc1ccc(OCC2CCCC2)cc1
- GI50 (MOLT-4 leukemia): 223 nM
- TGI (MOLT-4 leukemia): 501 nM
- GI50 (MDA-MB-435): 163 nM
- TGI (MDA-MB-435): 340 nM
- GI50 (MDA-MB-468 breast): 539 nM
- TGI (MDA-MB-468 breast): 1390 nM
- GI50 (TK-10 renal): 1760 nM
- TGI (TK-10 renal): 3230 nM
- GI50 (M14 melanoma): 178 nM
- TGI (M14 melanoma): 344 nM
- GI50 (NCI-H226 lung): 1720 nM
- TGI (NCI-H226 lung): 3400 nM
- GI50 (MDA-MB-231 breast): 202 nM
- TGI (MDA-MB-231 breast): 422 nM
- GI50 (OVCAR-3 ovarian): 765 nM
- TGI (OVCAR-3 ovarian): 2090 nM
- GI50 (A498 renal): 7150 nM
- TGI (A498 renal): 20100 nM
- GI50 (COLO 205 colon): 3230 nM
- TGI (COLO 205 colon): 12000 nM
- GI50 (HOP-92 NSCLC): 1740 nM
- TGI (HOP-92 NSCLC): 3430 nM
- GI50 (CAKI-1 renal): 677 nM
- TGI (CAKI-1 renal): 1900 nM
- GI50 (HCC-2998 colon): 278 nM
- TGI (HCC-2998 colon): 793 nM
- GI50 (NCI-H522 lung): 1510 nM
- TGI (NCI-H522 lung): 3030 nM
- GI50 (SK-OV-3 ovarian): 570 nM
- TGI (SK-OV-3 ovarian): 1730 nM
- GI50 (UACC-62 melanoma): 612 nM
- TGI (UACC-62 melanoma): 1380 nM
- GI50 (SNB-19 CNS): 545 nM
- TGI (SNB-19 CNS): 1190 nM
- GI50 (HCT-15 colon): 230 nM
- TGI (HCT-15 colon): 604 nM
- GI50 (SK-MEL-28 melanoma): 1260 nM
- TGI (SK-MEL-28 melanoma): 2550 nM
- GI50 (MALME-3M melanoma): 6710 nM
- TGI (MALME-3M melanoma): 19600 nM
- GI50 (SN12C renal): 460 nM
- TGI (SN12C renal): 960 nM
- GI50 (OVCAR-4 ovarian): 389 nM
- TGI (OVCAR-4 ovarian): 1650 nM
- GI50 (HL-60(TB) leukemia): 228 nM
- TGI (HL-60(TB) leukemia): 777 nM
- GI50 (SK-MEL-2 melanoma): 1700 nM
- TGI (SK-MEL-2 melanoma): 3170 nM
- GI50 (DU-145 prostate): 339 nM
- TGI (DU-145 prostate): 1150 nM
- GI50 (ACHN renal): 423 nM
- TGI (ACHN renal): 1490 nM
- GI50 (CCRF-CEM leukemia): 170 nM
- TGI (CCRF-CEM leukemia): 374 nM
- GI50 (PC-3 prostate): 222 nM
- TGI (PC-3 prostate): 530 nM
- GI50 (OVCAR-5 ovarian): 1140 nM
- TGI (OVCAR-5 ovarian): 2380 nM
- GI50 (SK-MEL-5 melanoma): 871 nM
- TGI (SK-MEL-5 melanoma): 2130 nM
- GI50 (IGROV1 ovarian): 292 nM
- TGI (IGROV1 ovarian): 823 nM
- GI50 (SR leukemia): 214 nM
- TGI (SR leukemia): 584 nM
- GI50 (UO-31 renal): 716 nM
- TGI (UO-31 renal): 2020 nM
- GI50 (BT-549 breast): 1460 nM
- TGI (BT-549 breast): 3030 nM
- GI50 (RPMI-8226 leukemia): 738 nM
- TGI (RPMI-8226 leukemia): 2430 nM
- GI50 (NCI-H23 lung): 408 nM
- TGI (NCI-H23 lung): 1510 nM
- GI50 (EKVX NSCLC): 427 nM
- TGI (EKVX NSCLC): 1540 nM
- GI50 (UACC-257 melanoma): 1740 nM
- TGI (UACC-257 melanoma): 3460 nM
- GI50 (KM12 colon): 182 nM
- TGI (KM12 colon): 364 nM
- GI50 (K-562 leukemia): 194 nM
- TGI (K-562 leukemia): 434 nM
- GI50 (SF-539 CNS): 461 nM
- TGI (SF-539 CNS): 1520 nM
- GI50 (SNB-75 CNS): 192 nM
- TGI (SNB-75 CNS): 450 nM
- GI50 (786-0 renal): 1640 nM
- TGI (786-0 renal): 3100 nM

Compound: Cc1noc2c(Cc3ccccc3)nn(CC(=O)N/N=C/c3ccc(Cl)cc3)c(=O)c12
- GI50 (MOLT-4 leukemia): > 100000 nM
- TGI (MOLT-4 leukemia): > 100000 nM
- GI50 (OVCAR-8 ovarian): 3180 nM
- TGI (OVCAR-8 ovarian): > 100000 nM
- GI50 (MDA-MB-435): > 100000 nM
- TGI (MDA-MB-435): > 100000 nM
- GI50 (MDA-MB-468 breast): 8110 nM
- TGI (MDA-MB-468 breast): 36200 nM
- GI50 (TK-10 renal): 1900 nM
- TGI (TK-10 renal): 4740 nM
- GI50 (M14 melanoma): 43600 nM
- TGI (M14 melanoma): > 100000 nM
- GI50 (MDA-MB-231 breast): 2590 nM
- TGI (MDA-MB-231 breast): 7300 nM
- GI50 (U251 CNS): 3640 nM
- TGI (U251 CNS): > 100000 nM
- GI50 (A498 renal): 1650 nM
- TGI (A498 renal): 3110 nM
- GI50 (COLO 205 colon): 5040 nM
- TGI (COLO 205 colon): > 100000 nM
- GI50 (HOP-92 NSCLC): 3010 nM
- TGI (HOP-92 NSCLC): 16600 nM
- GI50 (CAKI-1 renal): 2880 nM
- TGI (CAKI-1 renal): 11100 nM
- GI50 (NCI-H522 lung): 15400 nM
- TGI (NCI-H522 lung): > 100000 nM
- GI50 (SK-OV-3 ovarian): 2340 nM
- TGI (SK-OV-3 ovarian): 5850 nM
- GI50 (UACC-62 melanoma): 18300 nM
- TGI (UACC-62 melanoma): 86000 nM
- GI50 (SNB-19 CNS): 8480 nM
- TGI (SNB-19 CNS): 26700 nM
- GI50 (A549 NSCLC): 3870 nM
- TGI (A549 NSCLC): > 100000 nM
- GI50 (HCT-15 colon): > 100000 nM
- TGI (HCT-15 colon): > 100000 nM
- GI50 (SK-MEL-28 melanoma): > 100000 nM
- TGI (SK-MEL-28 melanoma): > 100000 nM
- GI50 (MALME-3M melanoma): 4230 nM
- TGI (MALME-3M melanoma): 29100 nM
- GI50 (LOX IMVI melanoma): 5610 nM
- TGI (LOX IMVI melanoma): > 100000 nM
- GI50 (HL-60(TB) leukemia): > 100000 nM
- TGI (HL-60(TB) leukemia): > 100000 nM
- GI50 (SK-MEL-2 melanoma): 19100 nM
- TGI (SK-MEL-2 melanoma): 38400 nM
- GI50 (HS 578T breast): 2310 nM
- TGI (HS 578T breast): 6230 nM
- GI50 (DU-145 prostate): > 100000 nM
- TGI (DU-145 prostate): > 100000 nM
- GI50 (CCRF-CEM leukemia): 21100 nM
- TGI (CCRF-CEM leukemia): > 100000 nM
- GI50 (PC-3 prostate): > 100000 nM
- TGI (PC-3 prostate): > 100000 nM
- GI50 (HT29 colon): > 100000 nM
- TGI (HT29 colon): > 100000 nM
- GI50 (IGROV1 ovarian): 6950 nM
- TGI (IGROV1 ovarian): 31200 nM
- GI50 (SR leukemia): 31200 nM
- TGI (SR leukemia): > 100000 nM
- GI50 (BT-549 breast): 23800 nM
- TGI (BT-549 breast): 90600 nM
- GI50 (RPMI-8226 leukemia): 8980 nM
- TGI (RPMI-8226 leukemia): > 100000 nM
- GI50 (NCI-H23 lung): 10200 nM
- TGI (NCI-H23 lung): 53700 nM
- GI50 (SW-620 colon): > 100000 nM
- TGI (SW-620 colon): > 100000 nM
- GI50 (SF-295 CNS): 3190 nM
- TGI (SF-295 CNS): 8640 nM
- GI50 (UACC-257 melanoma): > 100000 nM
- TGI (UACC-257 melanoma): > 100000 nM
- GI50 (RXF 393 renal): 2150 nM
- TGI (RXF 393 renal): 6870 nM
- GI50 (HCT-116 colon): 3160 nM
- TGI (HCT-116 colon): > 100000 nM
- GI50 (HOP-62 NSCLC): 2060 nM
- TGI (HOP-62 NSCLC): 4970 nM
- GI50 (SF-268 CNS): 7820 nM
- TGI (SF-268 CNS): > 100000 nM
- GI50 (NCI/ADR-RES ovarian): 4930 nM
- TGI (NCI/ADR-RES ovarian): > 100000 nM
- GI50 (KM12 colon): > 100000 nM
- TGI (KM12 colon): > 100000 nM
- GI50 (K-562 leukemia): 88600 nM
- TGI (K-562 leukemia): > 100000 nM
- GI50 (SF-539 CNS): 14100 nM
- TGI (SF-539 CNS): 35900 nM
- GI50 (SNB-75 CNS): 1590 nM
- TGI (SNB-75 CNS): 4360 nM
- GI50 (786-0 renal): 1940 nM
- TGI (786-0 renal): 3840 nM
